Data published in PubChem BioAssay (NCI).
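Five compound concentrations were applied to cells in 96-well plates for 48 hours; endpoints were derived by simple linear interpolation of the resulting dose-response curve. TGI denotes the concentration required for complete inhibition of growth.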

What was measured:
Assay in all cases: inhibition of tumour cell growth, NCI panel, 48 h
[1] = test system: HOP-92 NSCLC
[2] = test system: MDA-MB-435
[3] = test system: OVCAR-4 ovarian
[4] = test system: HCT-116 colon
[5] = test system: SNB-75 CNS
[6] = test system: HS 578T breast
[7] = test system: SNB-19 CNS
[8] = test system: K-562 leukemia
[9] = test system: A498 renal
[10] = test system: UACC-257 melanoma
[11] = test system: SN12C renal
[12] = test system: RXF 393 renal
[13] = test system: HCC-2998 colon
[14] = test system: HL-60(TB) leukemia
[15] = test system: MDA-MB-231 breast
[16] = test system: OVCAR-8 ovarian
[17] = test system: IGROV1 ovarian
[18] = test system: SK-MEL-2 melanoma
[19] = test system: OVCAR-3 ovarian
[20] = test system: NCI-H522 lung
[21] = test system: MALME-3M melanoma
[22] = test system: LOX IMVI melanoma
[23] = test system: SK-MEL-28 melanoma
[24] = test system: NCI-H460 lung
[25] = test system: NCI/ADR-RES ovarian
[26] = test system: NCI-H23 lung
[27] = test system: KM12 colon
[28] = test system: UO-31 renal
[29] = test system: SF-268 CNS
[30] = test system: COLO 205 colon
[31] = test system: OVCAR-5 ovarian
[32] = test system: CAKI-1 renal
[33] = test system: MOLT-4 leukemia
[34] = test system: NCI-H226 lung
[35] = test system: BT-549 breast
[36] = test system: A549 NSCLC
[37] = test system: SR leukemia
[38] = test system: SF-295 CNS
[39] = test system: DU-145 prostate
[40] = test system: HOP-62 NSCLC
[41] = test system: MDA-N
[42] = test system: M14 melanoma
[43] = test system: TK-10 renal
[44] = test system: MCF7 breast
[45] = test system: SF-539 CNS
[46] = test system: T-47D breast
[47] = test system: HCT-15 colon
[48] = test system: SK-MEL-5 melanoma
[49] = test system: ACHN renal
[50] = test system: PC-3 prostate
[51] = test system: U251 CNS
[52] = test system: HT29 colon
[53] = test system: SW-620 colon
[54] = test system: UACC-62 melanoma
[55] = test system: RPMI-8226 leukemia
[56] = test system: 786-0 renal
[57] = test system: EKVX NSCLC
[58] = test system: SK-OV-3 ovarian

Structure (SMILES): O=C1O[C@]2(c3ccccc3)C(c3ccccc3)=C[C@]2(C(=O)c2ccccc2)C1=O
- TGI [1]: 64.8 µM
- TGI [2]: > 100 µM
- TGI [3]: > 100 µM
- TGI [4]: > 100 µM
- TGI [5]: > 100 µM
- TGI [6]: > 100 µM
- TGI [7]: > 100 µM
- TGI [8]: 54.3 µM
- TGI [9]: > 100 µM
- TGI [10]: > 100 µM
- TGI [11]: > 100 µM
- TGI [12]: 5.13 µM
- TGI [13]: 39.2 µM
- TGI [14]: 22.4 µM
- TGI [15]: 99.1 µM
- TGI [16]: > 100 µM
- TGI [17]: > 100 µM
- TGI [18]: 74.6 µM
- TGI [19]: > 100 µM
- TGI [20]: 48.5 µM
- TGI [21]: > 100 µM
- TGI [22]: 79 µM
- TGI [23]: > 100 µM
- TGI [24]: 71.6 µM
- TGI [25]: > 100 µM
- TGI [26]: > 100 µM
- TGI [27]: > 100 µM
- TGI [28]: 61.1 µM
- TGI [29]: > 100 µM
- TGI [30]: > 100 µM
- TGI [31]: > 100 µM
- TGI [32]: > 100 µM
- TGI [33]: 22.3 µM
- TGI [34]: 98.6 µM
- TGI [35]: > 100 µM
- TGI [36]: > 100 µM
- TGI [37]: 30.7 µM
- TGI [38]: > 100 µM
- TGI [39]: > 100 µM
- TGI [40]: > 100 µM
- TGI [41]: > 100 µM
- TGI [42]: > 100 µM
- TGI [43]: 73.5 µM
- TGI [44]: 81.8 µM
- TGI [45]: 50.8 µM
- TGI [46]: > 100 µM
- TGI [47]: > 100 µM
- TGI [48]: > 100 µM
- TGI [49]: > 100 µM
- TGI [50]: > 100 µM
- TGI [51]: 93.5 µM
- TGI [52]: > 100 µM
- TGI [53]: 45.1 µM
- TGI [54]: > 100 µM
- TGI [55]: 64.9 µM
- TGI [56]: 85.7 µM
- TGI [57]: > 100 µM
- TGI [58]: > 100 µM
